{"source": "patent US11813275B2", "about": "“Pharmaceutical composition, methods for treating and uses thereof” (Boehringer Ingelheim International GmbH, priority 2013, dated 2023)", "key": {"ALDH-2": {"tested_on": "ALDH-2", "assay": "Liver ALDH-2 activity", "assay_type": "in vivo, Wistar rats", "details": "STZ diabetic rats, 7 weeks of treatment", "experimental": "(§1) Type I diabetes in Wistar rats (8 weeks old, 250-300 g) are induced by a single i.v. injection of STZ (60 mg/kg). The blood glucose level is measured 3 days after STZ injection (to test whether diabetes was induced) and on the day of sacrifice. One week after injection empagliflozin (SGLT2-i) was administered with drinking water for additional 7 weeks (10 and 30 mg/kg/d p.o.)."}, "aortic wall": {"tested_on": "aortic wall", "assay": "Aortic wall thickness and collagen content by sirius red staining", "assay_type": "in vivo, Wistar rats", "details": "STZ diabetic rats", "experimental": "Aortic wall thickness and collagen content were also measured microscopically after sirius red staining. Aortic segments were fixed in parafomaldehyde (4%) and paraffin-embedded. Sirius red staining for vascular fibrosis was performed with paraffin-embedded samples of aortic tissue upon de-paraffination. Afterwards the nuclei were prestained with hemalum. Then samples were stained for 1 hour in 0.1% with Sirius red solution containing saturated picric acid (1.2%). Finally, tissue samples were dehydrated with 70%, 96% and 100% isopropanol and coverslipped with a solution of polymers in xylene. 60-70 measurements were made per sample, n=6-7 animals/groups.\nFIGS. 16A and 16B: Microscopic determination of aortic wall thickness and collagen content by sirius red staining of aortic paraffinated sections. Quantification (FIG. 16A) and representative microscope images (FIG. 16B)."}, "isolated aortic rings": {"tested_on": "isolated aortic rings", "assay": "Isometric tension recordings of isolated aortic rings (vasorelaxation)", "assay_type": "in vivo, Wistar rats", "experimental": "as §1\nFIG. 2: A: Endothelial dependant vasorelaxation. […] B: Endothelial independent vasorelaxation obtain with glyceryl trinitrate (GTN) a NO donor."}, "[1]": {"tested_on": "STZ-induced diabetes mellitus (Type I) in rat", "assay": "Blood glucose and weight gain in STZ-induced type I diabetic rats", "assay_type": "in vivo, Wistar rats", "details": "10 and 30 mg/kg/d p.o. in drinking water for 7 weeks", "experimental": "as §1"}, "[2]": {"tested_on": "leukocyte-derived reactive oxygen species (ROS) in blood", "assay": "PDBu/zymosan A-stimulated chemiluminescence, oxidative burst in blood", "assay_type": "in vivo, Wistar rats", "details": "PDBu or zymosan A stimulation; STZ diabetic rats, 7 weeks, low (10 mg/kg) or high (30 mg/kg) dose", "experimental": "as §1\nFIGS. 3-9: Quantification of reactive oxygen species of (ROS) from leukocyte upon stimulation with zymosan A (ZymA). After 7 weeks of treatment, ROS production in blood is reduced either with the low or high dose of empagliflozin to level close to none diabetic animal."}, "patients with T1D": {"tested_on": "patients with T1D", "assay": "Blood pressure, arterial stiffness, HRV and adrenergic mediators in normotensive T1D patients under clamped euglycemia and hyperglycemia", "assay_type": "in vivo, human", "experimental": "Blood pressure, arterial stiffness, heart rate variability (HRV) and circulating adrenergic mediators were measured during clamped euglycemia and hyperglycemia in 40 normotensive patients with T1D. Studies were repeated after 8 weeks of empagliflozin (25 mg daily).\nAugmentation index (Alx) for the radial and carotid arteries as well as a derived aortic Alx and carotid, radial and femoral pulse wave velocities (PWV) are measured for assessment of arterial stiffness using a SphygmoCor® System (AtCor Medical Inc., Itasca, Ill.)."}, "[3]": {"tested_on": "superoxide formation in aortic vessels", "assay": "DHE staining of aortic cryosections (vascular superoxide formation)", "assay_type": "in vivo, Wistar rats", "details": "STZ diabetic rats, 7 weeks of treatment", "experimental": "as §1"}, "NADPH oxidase": {"tested_on": "NADPH oxidase", "assay": "NADPH oxidase activity in cardiac tissue", "assay_type": "in vivo, Wistar rats", "details": "STZ diabetic rats, 7 weeks of treatment", "experimental": "as §1"}, "[4]": {"assay": "Serum levels of insulin and interferon-gamma in STZ diabetic rats", "assay_type": "in vivo, Wistar rats", "details": "7 weeks of treatment", "experimental": "as §1"}}, "note": "“Also recorded” adds a separate entry of the source."}
{"molecule": "OC[C@H]1O[C@@H](c2ccc(Cl)c(Cc3ccc(O[C@H]4CCOC4)cc3)c2)[C@H](O)[C@@H](O)[C@@H]1O", "note": "[empagliflozin, 1-chloro-4-(β-D-glucopyranos-1-yl)-2-[4-((S)-tetrahydrofuran-3-yloxy)-benzyl]-benzene]", "values": [{"measurement": "ALDH-2 activity (liver)", "setting": "ALDH-2", "value": "partly restored"}, {"measurement": "aortic collagen content", "setting": "aortic wall", "value": "normalized"}, {"measurement": "aortic wall thickness", "setting": "aortic wall", "value": "normalized"}, {"measurement": "endothelial independent vasorelaxation with GTN: effect on smooth muscle cells", "setting": "isolated aortic rings; isolated aortic rings after 7 weeks of treatment, glyceryl trinitrate as NO donor", "value": "absence of deleterious effect"}, {"measurement": "endothelial function (endothelial dependent vasorelaxation)", "setting": "isolated aortic rings; isolated aortic rings of STZ diabetic rats after 7 weeks of treatment", "value": "normalization of endothelial function; also recorded: improvement of endothelial function"}, {"measurement": "blood glucose levels", "setting": "[1]", "value": "distinct reduction"}, {"measurement": "oxidative stress in blood / ROS production from leukocytes", "setting": "[2]", "value": "reduced oxidative stress"}, {"measurement": "carotid-radial pulse wave velocity", "setting": "patients with T1D; both glycemic conditions, 8 weeks of 25 mg daily, p≤0.0001", "value": "decreased significantly"}, {"measurement": "systolic blood pressure", "setting": "patients with T1D; clamped euglycemia, after 8 weeks of 25 mg daily, before treatment 111±9, p=0.0187", "value": "109±9", "unit": "mmHg"}, {"measurement": "augmentation index, aortic (derived)", "setting": "patients with T1D; clamped euglycemia, after 8 weeks of 25 mg daily, before treatment +0.1±13.4, p<0.0001", "value": "−6.2±14.3", "unit": "%"}, {"measurement": "augmentation index, carotid", "setting": "patients with T1D; clamped euglycemia, after 8 weeks of 25 mg daily, before treatment +1.3±17.0, p<0.0001", "value": "−5.7±17.0", "unit": "%"}, {"measurement": "augmentation index, radial", "setting": "patients with T1D; clamped euglycemia, after 8 weeks of 25 mg daily, before treatment −52±16, p<0.0001", "value": "−57±17", "unit": "%"}, {"measurement": "blood pressure effects", "setting": "patients with T1D; clamped hyperglycemia, 8 weeks of 25 mg daily", "value": "not significant"}, {"measurement": "carotid-femoral pulse wave velocity", "setting": "patients with T1D; clamped hyperglycemia, after 8 weeks of 25 mg daily, before treatment 5.7±1.1, p=0.0017", "value": "5.2±0.9", "unit": "m/s"}, {"measurement": "arterial stiffness (overall conclusion)", "setting": "patients with T1D; patients with uncomplicated T1D, 8 weeks of 25 mg daily", "value": "reduces arterial stiffness"}, {"measurement": "oxidative stress / superoxide formation in aortic vessels", "setting": "[3]", "value": "reduced oxidative stress"}, {"measurement": "NADPH oxidase activity in the cardiac tissue", "setting": "NADPH oxidase", "value": "diminished"}, {"measurement": "insulin level", "setting": "[4]; STZ diabetic rats", "value": "restore insulin level"}, {"measurement": "interferon γ (marker of inflammation)", "setting": "[4]; elevation in STZ diabetic rats", "value": "highly diminished or suppressed"}]}
